A word on the pIC50: it is −log10 of the IC50, conventionally taken in molar units. The low end stands for a large IC50, the high end for a small IC50.

pIC50: −log10 of the molar value.

Among the data in patent US12384776B2, “Compounds and uses thereof” (Foghorn Therapeutics Inc., priority 2019, dated 2025) are IC50 values, retold here.

Nanoluciferase-BRD9 fusion protein (3×FLAG-NLuc-BRD9) in SYO-1 cells, sequence (Q9H8M2 whole entry, the tested form may be a part): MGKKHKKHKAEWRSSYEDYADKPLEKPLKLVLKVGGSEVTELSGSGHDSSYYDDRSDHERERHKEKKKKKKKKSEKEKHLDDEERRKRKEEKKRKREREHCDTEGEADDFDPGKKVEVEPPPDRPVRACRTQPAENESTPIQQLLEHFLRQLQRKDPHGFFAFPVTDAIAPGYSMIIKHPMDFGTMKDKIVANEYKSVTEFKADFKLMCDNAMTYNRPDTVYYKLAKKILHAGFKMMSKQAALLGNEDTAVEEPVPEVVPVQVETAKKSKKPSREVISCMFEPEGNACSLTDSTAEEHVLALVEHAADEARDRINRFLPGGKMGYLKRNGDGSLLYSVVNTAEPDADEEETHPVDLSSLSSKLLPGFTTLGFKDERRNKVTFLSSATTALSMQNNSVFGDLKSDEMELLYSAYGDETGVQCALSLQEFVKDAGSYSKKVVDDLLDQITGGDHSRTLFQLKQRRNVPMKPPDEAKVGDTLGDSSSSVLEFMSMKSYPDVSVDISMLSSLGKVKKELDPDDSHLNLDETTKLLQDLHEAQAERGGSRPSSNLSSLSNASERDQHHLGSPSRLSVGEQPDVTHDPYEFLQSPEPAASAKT

The first assay has as its target Nanoluciferase-BRD9 fusion protein (3×FLAG-NLuc-BRD9) in SYO-1 cells (Homo sapiens (Human), UniProt Q9H8M2). The experiment in a line: SYO1 BRD9 NanoLuc degradation assay. Format: cell-based. To be noted: SYO-1 cells expressing 3×FLAG-NLuc-BRD9, 6 hours incubation, top dose 1 μM. The gist of the method:
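Degradation read as loss of NLuc signal after 6 h compound exposure (1 μM top final, 3-fold steps, 10 points, duplicates) in SYO-1 cells stably carrying 3×FLAG-NLuc-BRD9. Signal normalised between DMSO-treated cells and cells given 1 μM of a known BRD9 degrader.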
`COc1cc(-c2cn(C)c(=O)c3c2CCN(C(=O)NCCN2CCN(c4ccc5c(c4)C(=O)N(C4CCC(=O)NC4=O)C5=O)CC2)C3)cc(OC)c1CN(C)C` (stereo not shown) [Compound D150] gave a pIC50 of 7.00 to 8.00.

Regarding `CNC(=O)N1CCc2c(-c3cc(OC)c(CN4CCC(C#Cc5ccc6c(c5)C(=O)N(C5CCC(=O)NC5=O)C6=O)CC4)c(OC)c3)cn(C)c(=O)c2C1` (stereo not shown) [Compound D143], the pIC50 is above 8.00.

For the compound `CNC(=O)N1CCc2c(-c3cc(OC)c(CN4CCC(CCN5CCN(c6ccc7c(c6)C(=O)N(C6CCC(=O)N(COC(=O)OC(C)C)C6=O)C7=O)CC5)CC4)c(OC)c3)cn(C)c(=O)c2C1` (stereo not shown) [Compound D82], the pIC50 is above 8.00.

`CNC(=O)N1CCc2c(-c3cc(OC)c(CN4CCC(CCN5CCN(c6ccc7c(c6)C6(CC6)N(C6CCC(=O)NC6=O)C7=O)CC5)CC4)c(OC)c3)cn(C)c(=O)c2C1` (stereo not shown) [Compound D54] gave a pIC50 of at most 6.00.

Turning to `CNC(=O)N1CCc2c(-c3cc(OC)c(CC4CCN(CCN5CCN(c6ccc7c(c6)C(=O)N(C6CCC(=O)NC6=O)C7=O)CC5)CC4)c(OC)c3)cn(C)c(=O)c2C1` (stereo not shown) [Compound D130], the pIC50 is above 8.00.

Take `COc1cc(-c2cn(C)c(=O)c3c2CCN(C(=O)NCCN2CCC4CCN(c5ccc6c(c5)C(=O)N(C5CCC(=O)NC5=O)C6=O)C4C2)C3)cc(OC)c1CN(C)C` (stereo not shown) [Compound D188]: the pIC50 was 6.00 to 7.00.

For `COc1cc(-c2cn(C)c(=O)c3c2CCN(C(=O)NCCN2CC4(CCN(c5ccc6c(c5)C(=O)N(C5CCC(=O)NC5=O)C6=O)C4)C2)C3)cc(OC)c1CN(C)C` (stereo not shown) [Compound D211], the pIC50 is 6.00 to 7.00.

For the compound `CNC(=O)N1CCc2c(-c3cc(OC)c(CN4CCC(C(F)(F)CN5CCN(c6ccc7c(c6)C(=O)N(C6CCC(=O)NC6=O)C7=O)CC5)CC4)c(OC)c3)cn(C)c(=O)c2C1` (stereo not shown) [Compound D154], the pIC50 was above 8.00.

As to `CNC(=S)N1CCc2c(-c3cc(OC)c(CN4CCC(CCN5CCN(c6ccc7c(c6)CN(C6CCC(=O)NC6=O)C7=O)CC5)CC4)c(OC)c3)cn(C)c(=O)c2C1` (stereo not shown) [Compound D58], the pIC50 is above 8.00.

The compound `CNC(=O)N1CCc2c(-c3cc(OC)c(CN4CCC(CCN5CC6(C5)CN(c5ccc7c(c5)C(=O)N(C5CCC(=O)NC5=O)C7=O)C6)CC4)c(OC)c3)cn(C)c(=O)c2C1` (stereo not shown) [Compound D199] showed a pIC50 above 8.00.

`COc1cc(-c2cn(C)c(=O)c3c2CCN(C(=O)NC2CCC4CN(CCOc5ccc6c(c5)C(=O)N(C5CCC(=O)NC5=O)C6=O)CC42)C3)cc(OC)c1CN(C)C` (stereo not shown) [Compound D271] gave a pIC50 of 7.00 to 8.00.

As for `CNC(=O)N1CCc2c(-c3cc(OC)c(CN4CCC5(CC4)CN(CCN4CCN(c6ccc7c(c6)C(=O)N(C6CCC(=O)NC6=O)C7=O)CC4)CCO5)c(OC)c3)cn(C)c(=O)c2C1` (stereo not shown) [Compound D202], the pIC50 is 7.00 to 8.00.

Regarding `COc1cc(-c2cn(C)c(=O)c3c2CCN(C(=O)NCC2CCC4(CCN(c5ccc6c(c5)C(=O)N(C5CCC(=O)NC5=O)C6=O)CC4)O2)C3)cc(OC)c1CN(C)C` (stereo not shown) [Compound D120], the pIC50 is 6.00 to 7.00.

Regarding `COc1cc(-c2cn(C)c(=O)c3c2CCN(C(=O)NCCN(C)CCNC(=O)COc2ccc4c(c2)CN(C2CCC(=O)NC2=O)C4=O)C3)cc(OC)c1CN(C)C` (stereo not shown) [Compound D290], the pIC50 is at most 6.00.

As for `CNC(=O)N1CCc2c(-c3cc(OC)c(CN4CC5(CCC(N6Cc7cc8c(cc7C6)C(=O)N(C6CCC(=O)NC6=O)C8=O)CC5)C4)c(OC)c3)cn(C)c(=O)c2C1` (stereo not shown) [Compound D176], the pIC50 is 7.00 to 8.00.

`CNC(=O)N1CCc2c(-c3cc(OC)c(CN4CCN(CCN5CCN(c6ccc7c(c6)C(=O)N(C6CCC(=O)NC6=O)C7=O)CC5)CC4)c(OC)c3)cn(C)c(=O)c2C1` (stereo not shown) [Compound D139] gave a pIC50 above 8.00.

Compound `CNC(=O)N1CCc2c(-c3cc(OC)c(CN4CCC5(CC4)CN(CCCN4CCN(c6ccc7c(c6)C(=O)N(C6CCC(=O)NC6=O)C7=O)CC4)CCO5)c(OC)c3)cn(C)c(=O)c2C1` (stereo not shown) [Compound D140] gave a pIC50 above 8.00.

In turn, `CNC(=O)N1CCc2c(-c3cc(OC)c(CNC4CC45CCN(c4ccc6c(c4)C(=O)N(C4CCC(=O)NC4=O)C6=O)C5)c(OC)c3)cn(C)c(=O)c2C1` (stereo not shown) [Compound D156] showed a pIC50 above 8.00.

The compound `CNC(=O)N1CCc2c(-c3cc(OC)c(CN(C)CC45CC(C(=O)NCCCCCOc6ccc7c(c6)C(=O)N(C6CCC(=O)NC6=O)C7=O)(C4)C5)c(OC)c3)cn(C)c(=O)c2C1` (stereo not shown) [Compound D286] had a pIC50 of 6.00 to 7.00.

In turn, `CNC(=O)N1CCc2c(-c3cc(OC)c(CN4CCC(CN5CCN(c6ccc7c(c6)C(=O)N(C6CCC(=O)NC6=O)C7=O)CC5)CC4)c(OC)c3)cn(C)c(=O)c2C1` (stereo not shown) [Compound D256] gave a pIC50 above 8.00.

On to `CNC(=O)N1CCc2c(-c3cc(OC)c(CN4CCN(C5CNC5)CC4)c(OC)c3)cn(C)c(=O)c2C1` [Compound B23], for which the pIC50 was at most 6.00.

In the case of `CNC(=O)N1CCc2c(-c3cc(OC)c(CN4CCC(C(C)(C)N5CCC6(CC5)CC(Oc5ccc7c(c5)C(=O)N(C5CCC(=O)NC5=O)C7=O)C6)CC4)c(OC)c3)cn(C)c(=O)c2C1` (stereo not shown) [Compound D114], the negative-log IC50 (pIC50) is above 8.00.

The compound `CNC(=O)N1CCc2c(-c3cc(OC)c(CN4CCC(CN(C(C)C)C5CC(Oc6ccc7c(c6)C(=O)N(C6CCC(=O)NC6=O)C7=O)C5)CC4)c(OC)c3)cn(C)c(=O)c2C1` (stereo not shown) [Compound D125] had a pIC50 above 8.00.

In turn, `COc1cc(-c2cn(C)c(=O)c3c2CCN(C(=O)NCCN2CC4(CCN4c4ccc5c(c4)C(=O)N(C4CCC(=O)NC4=O)C5=O)C2)C3)cc(OC)c1CN(C)C` (stereo not shown) [Compound D192] showed a pIC50 of 6.00 to 7.00.

Consider `COc1cc(-c2cn(C)c(=O)c3c2CCN(C(=O)NCCCN2CC4(CCN4c4ccc5c(c4)C(=O)N(C4CCC(=O)NC4=O)C5=O)C2)C3)cc(OC)c1CN(C)C` (stereo not shown) [Compound D241], for which the pIC50 is 6.00 to 7.00.

In turn, `CNC(=O)N1CCc2c(-c3cc(OC)c(CN(C)C45CC(C(=O)NCCCCCOc6ccc7c(c6)C(=O)N(C6CCC(=O)NC6=O)C7=O)(C4)C5)c(OC)c3)cn(C)c(=O)c2C1` (stereo not shown) [Compound D276] gave a negative logarithm of the IC50 (pIC50) of 7.00 to 8.00.

`COc1cc(-c2cn(C)c(=O)c3c2CCN(C(=O)NCC2CC4(C2)CN(CCCOc2ccc5c(c2)C(=O)N(C2CCC(=O)NC2=O)C5=O)C4)C3)cc(OC)c1CN(C)C` (stereo not shown) [Compound D194]: the negative logarithm of the IC50 (pIC50) was 6.00 to 7.00.

Regarding `CNC(=O)N1CCc2c(-c3cc(OC)c(CN4CCC(CCN(C)C5CCN(c6ccc7c(c6)C(=O)N(C6CCC(=O)NC6=O)C7=O)CC5)CC4)c(OC)c3)cn(C)c(=O)c2C1` (stereo not shown) [Compound D200], the pIC50 is above 8.00.

Regarding `CNC(=O)N1CCc2c(-c3cc(OC)c(CN4CC(CN5CCC6(CC5)CN(c5ccc7c(c5)C(=O)N(C5CCC(=O)NC5=O)C7=O)C6)C4)c(OC)c3)cn(C)c(=O)c2C1` (stereo not shown) [Compound D109], the pIC50 was above 8.00.

In turn, `CNC(=O)N1CCc2c(-c3cc(OC)c(CN4CCC(CCN5CCN(c6ccc7nn(C8CCC(=O)NC8=O)c(=O)n7c6)CC5)CC4)c(OC)c3)cn(C)c(=O)c2C1` (stereo not shown) [Compound D57] showed a pIC50 of 7.00 to 8.00.

The compound `CNC(=O)N1CCc2c(-c3cc(OC)c(CN4CCC(CCN5CCN(C67CC8CC(CC(C8)C6)C7)CC5)CC4)c(OC)c3)cn(C)c(=O)c2C1` [Compound D74] had a pIC50 of at most 6.00.

As to `COc1cc(-c2cn(C)c(=O)c3c2CCN(C(=O)NCCCN2CCC4(CCN4c4ccc5c(c4)C(=O)N(C4CCC(=O)NC4=O)C5=O)C2)C3)cc(OC)c1CN(C)C` (stereo not shown) [Compound D261], the pIC50 is 7.00 to 8.00.

`COc1cc(-c2cn(C)c(=O)c3c2CCN(C(=O)CC2CCC24CCN(CCCCN2CCN(c5ccc6c(c5)C(=O)N(C5CCC(=O)NC5=O)C6=O)CC2)CC4)C3)cc(OC)c1CN(C)C` (stereo not shown) [Compound D220]: the pIC50 is 6.00 to 7.00.

As to `CNC(=O)N1CCc2c(-c3cc(OC)c(CN4CC(CCN5CCN(c6ccc7c(c6)C(=O)N(C6CCC(=O)NC6=O)C7=O)CC5)C4)c(OC)c3)cn(C)c(=O)c2C1` (stereo not shown) [Compound D258], the pIC50 was 6.00 to 7.00.

For the compound `CNC(=O)N1CCc2c(-c3cc(OC)c(CNC4CC5(C4)CN(c4ccc6c(c4)C(=O)N(C4CCC(=O)NC4=O)C6=O)C5)c(OC)c3)cn(C)c(=O)c2C1` (stereo not shown) [Compound D158], the pIC50 is above 8.00.

`CNC(=O)N1CCc2c(c(-c3cc(OC)c(CN(C)CCOCCN4CCN(c5ccc6c(c5)C(=O)N(C5CCC(=O)NC5=O)C6=O)CC4)c(OC)c3)cn(C)c2=O)C1` (stereo not shown) [Compound D296] had a pIC50 of at most 6.00.

On to `COc1cc(-c2cn(C)c(=O)c3c2CCN(C(=O)NCC2CC4(CCN(CCOc5ccc6c(c5)C(=O)N(C5CCC(=O)NC5=O)C6=O)CC4)C2)C3)cc(OC)c1CN(C)C` (stereo not shown) [Compound D267], for which the pIC50 is 7.00 to 8.00.

The assay is the same for the next values; noted with them: SYO-1 cells, 6 hours, Table 6A.
`COc1cc(-c2cn(C)c(=O)c3c2CCN(C(=O)NCCOCCOCCNc2cccc4c2CN(C2CCC(=O)NC2=O)C4=O)C3)cc(OC)c1CN(C)C` (stereo not shown) [Compound D5, 5-[4-[(dimethylamino)methyl]-3,5-dimethoxyphenyl]-N-[2-[2-(2-[[2-(2,6-dioxopiperidin-3-yl)-1-oxo-3H-isoindol-4-yl]amino]ethoxy)ethoxy]ethyl]-7-methyl-8-oxo-3,4-dihydro-1H-2,7-naphthyridine-2-carboxamide formic acid]: the pIC50 is below 6.00.

The same assay, now with this note: SYO-1 cells, 6 hours, Table 6C.
Compound `COc1cc(-c2cn(C)c(=O)c3c2CCC3)cc(OC)c1CN1CC(C#Cc2ccc3c(c2)C(=O)N(C2CCC(=O)NC2=O)C3)C1` (stereo not shown) [Compound D365] showed a pIC50 above 8.00.

For the compound `COc1cc(-c2cn(C)c(=O)c3c2CN(C(=O)F)CC3)cc(OC)c1CN1CC(CN2CCC3(CC2)CN(c2ccc4c(c2)C(=O)N(C2CCC(=O)NC2=O)C4)C3)C1` (stereo not shown) [Compound D349], the pIC50 was at most 8.00.

For the compound `COc1cc(-c2cn(C)c(=O)c3c2CCN(C(=O)NCC(F)F)C3)cc(OC)c1CN1CCC(CN2CCC3(CC2)CN(c2ccc4c(c2)C(=O)N(C2CCC(=O)NC2=O)C4)C3)CC1` (stereo not shown) [Compound D336], the pIC50 is above 8.00.

In turn, `CNC(=O)N1CCc2c(-c3cc(OC)c(CN4CCN(CCC5CCN(c6ccc7c(c6)C(=O)N(C6CCC(=O)N(C)C6=O)C7)CC5)CC4)c(OC)c3)cn(C)c(=O)c2C1` (stereo not shown) [Compound D305] showed a pIC50 of at most 6.00.

`CNC(=O)N1CCc2c(-c3cc(OC)c(CN4[C@H](C)CN(CCC5CCN(c6ccc7c(c6)CN(C6CCC(=O)NC6=O)C7=O)CC5)C[C@H]4C)c(OC)c3)cn(C)c(=O)c2C1` (stereo partly shown) [Compound D325] gave a pIC50 above 8.00.
